Values joined by “and” are separate entries in the source; they are usually repeats but may differ in a detail not shown here. Equal entries are not always repeated. Where two headings read alike, the source gives them in different places.
What was measured:
E. aerogenes ATCC 13048 = test: Broth microdilution assay, E. aerogenes; type: cell-based, Enterobacter aerogenes; conditions: for inhibition at 50 µM: Klebsiella aerogenes, ATCC13048, 24 h, read-out: Inhibitory effect (%) E. aerogenes ATCC 13048
Procedure: (§1) Clinically used antimicrobial agents were selected based on international guidelines for antimicrobial testing and were utilised as reference compounds in the antimicrobial assays. The compounds were purchased from Sigma, Fluka and ICN Biomedicals. Stock solutions of the reference compounds were prepared either in double distilled sterile MilliQ water or in DMSO. Water solutions were sterilised through a 0.22 µm filter (VWR International). […] During the primary screening, these reference compounds were used as positive controls at the determined MIC on every plate.
(§2) Gram-negative strains Escherichia coli (ATCC 25922), Enterobacter aerogenes (ATCC 13048) and Pseudomonas aeruginosa (ATCC 27853), Gram-positive strains Staphylococcus aureus (ATCC 25923) and Enterococcus faecalis (ATCC 29212), and fungal strain Candida albicans (ATCC 90028) were obtained from Microbiologics Inc., and used for the antimicrobial screening. Strains were selected according to the guidelines set for clinical laboratories by Clinical and Laboratory Standards Institute [CLSI, formerly National Committee on Clinical Laboratory Standards [22]] and the European Committee on Antimicrobial Susceptibility Testing (EUCAST). Bacterial strains were grown on Mueller Hinton II Agar (MHA) (BBL, BD) and Mueller Hinton II broth (MHB) (BBL, BD), whereas Candida was initiated on Sabouraud Dextrose Agar (SDA) (Difco, BD) plates. Media were prepared into MilliQ water according to manufacturer’s instruction and autoclaved at 121°C for 15 min. Bacteria were plated on MHA plates and incubated at 37°C for 16–18 h. Bacterial suspension for the assays was prepared by subculturing the bacteria into MHB and by incubating at 37°C for 16–20 h at 110 rpm prior to the assay. Candida strain was grown on SDA plates at 27°C for 16–18 h and suspended into sterile 0.9% saline for the assay.
(§3) Antimicrobial screening assays were performed by broth microdilution method following the guidelines of CLSI and EUCAST. Bacterial suspensions were prepared as mentioned earlier and diluted with MHB to obtain a final inoculum of 5×10^5 colony-forming units (cfu)/mL in the assay for all the bacteria (based on OD620 values previously calibrated against plate counts). Candida suspension was prepared into sterile 0.9% saline solution as stated earlier. […] Assays were carried out in clear 96-well microtitre plates and initiated by dispensing an equal volume of microbial suspension and sample solution diluted into the assay medium into the wells. The plates were incubated for 24 h at 37°C (for Candida the incubation was at 35°C for 48 h) with agitation. Absorbance was measured at 620 nm with Victor plate reader (Wallac 1420, Perkin Elmer) at 0, 4 and 24 h with the bacteria, and at 0, 24 and 48 h with Candida. The antimicrobial activity of the samples was calculated from the absorbance values by comparing to the controls, and expressed as a percentage inhibition of growth. All the betulin derivatives were first assayed at the single concentration of 50 µM (two separate experiments, each with three replicates). […] The MIC90 value was expressed as the lowest concentration of compound that inhibited the microbial growth by >90%. The MIC90 results are means of three replicates from two separate experiments.

E. coli ATCC 25922 = test: Broth microdilution assay, E. coli; type: cell-based, Escherichia coli
Procedure: as §1, §2, §3

E. faecalis ATCC 29212 = test: Broth microdilution assay, E. faecalis; type: cell-based, Enterococcus faecalis; conditions: for inhibition at 50 µM: Enterococcus faecalis, ATCC29212, 24 h
Procedure: as §1, §2, §3

P. aeruginosa ATCC 27853 = test: Broth microdilution assay, P. aeruginosa; type: cell-based, Pseudomonas aeruginosa
Procedure: as §1, §2, §3

S. aureus ATCC 25923 = test: Broth microdilution assay, S. aureus; type: cell-based, Staphylococcus aureus; conditions: for inhibition at 50 µM: Staphylococcus aureus, ATCC25923, 24 h
Procedure: as §1, §2, §3

C. albicans ATCC 90028 = test: Broth microdilution assay, C. albicans; type: cell-based, Candida albicans
Procedure: as §1, §2, §3

in vitro = type: cell-based, human; conditions: human
Procedure: (§4) Huh-7 cells (derived from human hepatocellular carcinoma) were obtained as a gift from Prof. Ralf Bartenschlager (University of Heidelberg, Germany) and used for assessing the cytotoxicity against mammalian cells. HL cells (a heteroploid cell line used for propagating respiratory viruses) were used as a host cell line in the host-pathogen co-culture assay. […] Both cell lines were cultured at 37°C, 5% CO2 and 95% humidity.
(§5) The effect of the betulin derivatives on metabolic activity of Huh-7 cells was evaluated by measuring the intracellular ATP content of the cells after 24 h exposure to the compounds. In brief, cells were seeded at 20000 cells/well on white-walled microplates (PerkinElmer) and incubated at 37°C, 5% CO2 and 95% humidity. After culturing the cells overnight, the medium was replaced with the assay media (5% FBS) containing the sample and the cells were incubated for 24 h. Polymyxin B sulphate (15000 IU/mL) was used as a positive control. Following the incubation period, Promega’s CellTiter-Glo Cell Viability Assay was used to determine the intracellular ATP levels according to the manufacturer’s instructions. Cells were washed with 100 µL 6.7 mM PBS, pH 7.4 and 50 µL of fresh assay media and 50 µL of the CellTiter-Glo reagent were added into the wells. After 2 min shaking, followed by 10 min incubation at RT, luminometric signal was measured using Varioskan Flash plate reader (Thermo Fisher Scientific).

Huh-7 cells = test: in vitro; type: cell-based, human; conditions: 50 µM, 24 h exposure, ATP content, 5% FBS
Procedure: as §4, §5

[1] = 50 µM, 24 h, inhibition of growth, mean ± SD
[2] = Escherichia coli, ATCC25922, 24 h; read-out: Inhibitory effect (%) E. coli ATCC 25922
[3] = 50 µM, 24 h, inhibition of growth, mean ± SD, read-out: Inhibitory effect (%) E. faecalis ATCC 29212
[4] = Pseudomonas aeruginosa, ATCC27853, 24 h; read-out: Inhibitory effect (%) P. aeruginosa ATCC 27853
[5] = 50 µM, 24 h, inhibition of growth, mean ± SD, read-out: Inhibitory effect (%) S. aureus ATCC 25923
[6] = Candida albicans, ATCC90028, 48 h; read-out: Inhibitory effect (%) C. albicans ATCC 90028
[7] = 50 µM, 24 h exposure, ATP content, 5% FBS, read-out: Cytotoxicity (%) Huh-7 cells
[8] = 50 µM, 48 h at 35°C, inhibition of growth, mean ± SD

Structure (SMILES) | inhibition at 50 µM (E. aerogenes ATCC 13048; [1]) [%] | inhibition at 50 µM (E. coli ATCC 25922; [2]) [%] | Inhibitory effect (%) E. faecalis ATCC 29212 (E. faecalis ATCC 29212; [1]) | inhibition at 50 µM (E. faecalis ATCC 29212; [3]) [%] | inhibition at 50 µM (P. aeruginosa ATCC 27853; [4]) [%] | inhibition at 50 µM (S. aureus ATCC 25923; [5]) [%] | inhibition at 50 µM (C. albicans ATCC 90028; [6]) [%] | cytotoxicity at 24 h, 50 µM (in vitro; Cytotoxicity (%) Huh-7 cells) [%] | Inhibitory effect (%) E. aerogenes ATCC 13048 (E. aerogenes ATCC 13048; [1]) [%] | Inhibitory effect (%) E. coli ATCC 25922 (E. coli ATCC 25922; [1]) [%] | Inhibitory effect (%) P. aeruginosa ATCC 27853 (P. aeruginosa ATCC 27853; [1]) [%] | Inhibitory effect (%) S. aureus ATCC 25923 (S. aureus ATCC 25923; [1]) [%] | Inhibitory effect (%) C. albicans ATCC 90028 (C. albicans ATCC 90028; [8]) [%] | Cytotoxicity (%) Huh-7 cells (Huh-7 cells) [%] | further results
C=C(C)[C@@H]1CC[C@]2(COC(=O)COc3cc(C(C)C)ccc3C)CC[C@]3(C)[C@H](CC[C@@H]4[C@@]5(C)CC[C@H](O)C(C)(C)[C@@H]5CC[C@]43C)[C@@H]12 [Compound 4, betulinyl 28-carboxymethoxycarvacrolate] | 9.9 ± 3.3 | -1.2 | 72% and 72.3±4.0% | > 70 | 3 ± 3 | -17.2 | 31.4 ± 9.1 | -4.6 |  |  |  |  |  |  | 
CC(C)[C@@H]1CC[C@]2(C(=O)O)CC[C@]3(C)[C@H](CC[C@@H]4[C@@]5(C)CCC(=O)C(C)(C)[C@@H]5CC[C@]43C)[C@@H]12 [Compound 24, dihydrobetulonic acid] | 16.8 ± 5.4 | 6.2 ± 4.5 | 56.6±2.0% | 57 | 4.9 ± 0.5 | 15.1 ± 3.7 | 54.9 ± 8.3 | 13 ± 10.3 |  |  |  |  |  |  | 
C=C(C)[C@@H]1CC[C@]2(C(=O)Oc3ccc(C=O)cc3OC)CC[C@]3(C)[C@H](CC[C@@H]4[C@@]5(C)CCC(=O)C(C)(C)C5CC[C@]43C)[C@@H]12 (stereo partly shown) [Compound 26, vanillinyl betulonate] |  |  | 58.7±0.1% |  |  |  |  | -10.1 ± 2.2 |  |  |  |  |  |  | inhibition at 50 µM (E. aerogenes ATCC 13048): 7.5 ± 0.6%; inhibition at 50 µM (E. coli ATCC 25922; Escherichia coli, ATCC25922, 24 h, read-out: Inhibitory effect (%) E. coli ATCC 25922): 4.1 ± 0.4%; inhibition at 50 µM (E. faecalis ATCC 29212; read-out: Inhibitory effect (%) E. faecalis ATCC 29212, 50 µM, 24 h, inhibition of growth, mean ± SD): 59%; inhibition at 50 µM (P. aeruginosa ATCC 27853; Pseudomonas aeruginosa, ATCC27853, 24 h, read-out: Inhibitory effect (%) P. aeruginosa ATCC 27853): 6.6 ± 1%; inhibition at 50 µM (S. aureus ATCC 25923; read-out: Inhibitory effect (%) S. aureus ATCC 25923, 50 µM, 24 h, inhibition of growth, mean ± SD): 7.3 ± 5.8%; inhibition at 50 µM (C. albicans ATCC 90028; Candida albicans, ATCC90028, 48 h, read-out: Inhibitory effect (%) C. albicans ATCC 90028): -65.9 ± 15%
CC(=O)OCC12CCC3(C(C)C)C1=C1C(CC4C5(C)CCC(OC(C)=O)C(C)(C)C5CCC4(C)C1(C)CC2)n1c(=O)n(-c2ccc4c(c2)OCO4)c(=O)n13 (stereo not shown) [Compound 35] | 14.2 ± 1.6 | 3.4 ± 3.1 | 70.0±0.9% | > 70 | 5.5 ± 1 | 5.9 ± 1.2 | 4.4 ± 12.9 |  |  |  |  |  |  |  | cytotoxicity at 24 h, 50 µM (in vitro; [7]): -0.1%
CC(=O)OCC12CCC3(C(C)C)C1=C1C(CC4C5(C)CCC(OC(C)=O)C(C)(C)C5CCC4(C)C1(C)CC2)n1c(=O)n(-c2cccc([N+](=O)[O-])c2)c(=O)n13 (stereo not shown) [Compound 38] | 19.3 ± 3 | 8.8 ± 2.6 | 74% and 73.9±1.4% | > 70 | 7.6 ± 1.4 | 6.7 ± 1.5 | -13.8 |  |  |  |  |  |  |  | cytotoxicity at 24 h, 50 µM (in vitro; [7]): 8.3 ± 3.9%
CC(C)C12CCC3(COC(=O)c4ccccc4)CCC4(C)C(=C31)C(CC1C3(C)CCC(OC(=O)c5ccccc5)C(C)(C)C3CCC14C)n1c(=O)n(C)c(=O)n12 (stereo not shown) [Compound 49] |  |  | 64.6±0.8% |  |  |  |  |  | 14.2±1.5 | 0.0±6.0 | 5.3±1.9 | 15.1±1.0 | -48.0±24.5 | -10.6±4.1 | 
CC(C)C12CCC3(COC(=O)c4ccccc4)CCC4(C)C(=C31)C(CC1C3(C)CCC(OC(=O)c5ccccc5)C(C)(C)C3CCC14C)n1c(=O)n(-c3ccccc3)c(=O)n12 (stereo not shown) [Compound 50] |  |  | 38.8±5.8% |  |  |  |  |  | 9.6±4.2 | -2.8±5.2 | 3.2±0.3 | 10.1±1.0 | -35.2±31.4 | -6.2±3.7 | 
CC(C)C12CCC3(COC(=O)C4CCCCC4)CCC4(C)C(=C31)C(CC1C3(C)CCC(OC(=O)C5CCCCC5)C(C)(C)C3CCC14C)n1c(=O)n(C(C)(C)C)c(=O)n12 (stereo not shown) [Compound 51] |  |  | 62.3±0.3% |  |  |  |  |  | 10.8±2.5 | -3.2±1.0 | 5.9±0.3 | 7.5±3.8 | -96.4±22.3 | -10.0±2.6 | 

— paper PMC4102551, “Screening and Characterisation of Antimicrobial Properties of Semisynthetic Betulin Derivatives” (PLoS ONE, 2014)
